Results on four compounds are retold here after patent publication US4103085A, “7-(Syn-α-alkoxy-iminofurylacetamido-3-(2-carboxyalkyl-2,3-dihy dro-s-triazolo[4,3-b]pyridazin-3-on-6-ylthiomethyl)-3-cephem-4-carboxylic acids” (Bristol-Myers Company, priority 1977, dated 1978).

Each structure is given as a SMILES string. In brackets after ≈: the same amount, converted by molar mass. Counter-ions that a name gives are not always drawn. Where only a bound is given, the exact number is not on record here.

Format in all cases: cell-based
In assay [1] the test system is B. anthracis (1) S. pyrogenes (5). Nature of the assay: microbe, parasite or virus in culture. Particulars: Bacillus anthracis, read-out: Geometric Mean of MIC.
The test system of another assay is E. coli (7). Nature of the assay: In vitro activity, Mueller-Hinton agar, serial dilution method (Table 1). The settings on record: Escherichia coli, read-out: Geometric Mean of MIC.
Another assay has as its system S. aureus (3 strains). The description is as above. Particulars: Staphylococcus aureus, read-out: Geometric Mean of MIC.
The test system of the next assay is Proteus (6). The assay is described as above. The settings on record: read-out: Geometric Mean of MIC.
Another assay has as its system S. viridans (5). Described as above. The settings on record: Streptococcus viridans, read-out: Geometric Mean of MIC.
The subject of another assay is Kl. pneumoniae (4). The assay is described as above. The settings on record: Klebsiella pneumoniae, read-out: Geometric Mean of MIC. An excerpt:
(§1) In vitro Activity Using Mueller-Hinton Agar
(§2) By the Serial Dilution Method

For assay [2], the system named is Shig. (3), Serr. (1) (1), Sal. (2). The description is as above. The settings on record: read-out: Geometric Mean of MIC.
Excerpt: as §1, §2

In a further assay the test system is N. meningitidis (5). The assay is described as above. Particulars: Neisseria meningitidis, read-out: Geometric Mean of MIC.
For a further assay, the system named is D. pneumoniae (5). The assay is described as above. The settings on record: Streptococcus pneumoniae, read-out: Geometric Mean of MIC.
The test system of the next assay is N. gonorrhoeae (5). The assay is described as above. Particulars: Neisseria gonorrhoeae, read-out: Geometric Mean of MIC.
The next assay concerns H. influenzae (7). The description is as above. Particulars: Haemophilus influenzae, read-out: Geometric Mean of MIC.
The subject of the next assay is K. pneumoniae. Nature of the assay: MICs in Mueller-Hinton agar (Table 2). Particulars: Klebsiella pneumoniae, 4 strains, read-out: Geometric Means of MIC's. An excerpt: (§3) Geometric Means of MIC's Against 3 Strains
(§4) of S. aureus and 27 Strains of Gram-negative Bacteria
(§5) (mcg./ml., Mueller-Hinton Agar)

A further assay concerns S. aureus. The assay is described as follows: MICs in Mueller-Hinton agar (Table 2). The settings on record: Staphylococcus aureus, 1 strain, read-out: Geometric Means of MIC's.
Excerpt: as §3, §4, §5

In a further assay the test system is Shigella, Salmonella. The assay is described as follows: MICs in Mueller-Hinton agar (Table 2). The settings on record: 5 strains, read-out: Geometric Means of MIC's.
Excerpt: as §3, §4, §5

A further assay has as its system Indole(+) Proteus. The assay is described as follows: MICs in Mueller-Hinton agar (Table 2). The settings on record: 3 strains, read-out: Geometric Means of MIC's.
Excerpt: as §3, §4, §5

Another assay has as its system E. coli. The assay is described as follows: MICs in Mueller-Hinton agar (Table 2). Particulars: Escherichia coli, 6 strains, read-out: Geometric Means of MIC's.
Excerpt: as §3, §4, §5

Assay [3] deals with Indole(+) Proteus, Cephalosporin-R. Nature of the assay: MICs in Mueller-Hinton agar (Table 2). Particulars: 2 strains, read-out: Geometric Means of MIC's.
Excerpt: as §3, §4, §5

In another assay the test system is E. coli, Cephalosporin-R. Nature of the assay: MICs in Mueller-Hinton agar (Table 2). The settings on record: Escherichia coli, 1 strain, read-out: Geometric Means of MIC's.
Excerpt: as §3, §4, §5

Assay [4] deals with S. marcescens. The assay is described as follows: MICs in Mueller-Hinton agar (Table 2). The settings on record: Serratia marcescens, 1 strain, read-out: Geometric Means of MIC's.
Excerpt: as §3, §4, §5

In a further assay the test system is P. aeruginosa. The assay is described as follows: MICs in Mueller-Hinton agar (Table 2). The settings on record: Pseudomonas aeruginosa, 2 strains, read-out: Geometric Means of MIC's.
Excerpt: as §3, §4, §5

A further assay relates to E. cloacae. The assay is described as follows: MICs in Mueller-Hinton agar (Table 2). The settings on record: Enterobacter cloacae, 1 strain, read-out: Geometric Means of MIC's.
Excerpt: as §3, §4, §5

For a further assay, the system named is S. aureus, Penicillin-R. Nature of the assay: MICs in Mueller-Hinton agar (Table 2). The settings on record: Staphylococcus aureus, 2 strains, read-out: Geometric Means of MIC's.
Excerpt: as §3, §4, §5

The next assay has as its system Indole (-) Proteus. The assay is described as follows: MICs in Mueller-Hinton agar (Table 2). Particulars: 2 strains, read-out: Geometric Means of MIC's.
Excerpt: as §3, §4, §5

For assay [5], the system named is S. marcescens. Nature of the assay: MICs against 18 strains of S. marcescens (Table 3). Particulars: Serratia marcescens, read-out: Geometric Means of MIC's. An excerpt:
Geometric Means of MIC's Against 18 Strains

Consider `CO/N=C(\C(=O)N[C@@H]1C(=O)N2C(C(=O)O)=C(COC(N)=O)CS[C@H]12)c1ccco1` [Cefuroxime, sodium 6R,7R-3-carbamoyloxymethyl-7-(2Z)-2-methoxyimino(fur-2-yl)acetamidoceph-3em-4-carboxylate, reference compound], for which the MIC was 0.025 µg/mL in [1]; 1.28 µg/mL in the assay with E. coli (7); 1.24 µg/mL in the assay on S. aureus (3 strains); 0.88 µg/mL with Proteus (6); 0.1 µg/mL in the assay with S. viridans (5); 3.1 µg/mL with Kl. pneumoniae (4). The MIC is 4.06 µg/mL in [2]; 1.6 µg/mL in the assay with N. meningitidis (5); 0.0125 µg/mL in the assay on D. pneumoniae (5); 0.4 µg/mL in the assay on N. gonorrhoeae (5); 1.16 µg/mL with H. influenzae (7).
As to `CO/N=C(\C(=O)N[C@@H]1C(=O)N2C(C(=O)O)=C(CSc3ccc4nn(CC(=O)O)c(=O)n4n3)CS[C@H]12)c1ccco1` [BB-S511, 7-[(2Z)-2-Methoxyimino(fur-2-yl)acetamido]-3-(2-carboxymethyl-2,3-dihydro-s-triazolo[4,3-b]pyridazin-3-on-6-ylthiomethyl)-3-cephem-4-carboxylic Acid Disodium Salt], the MIC in the assay on K. pneumoniae came out at 0.7 µg/mL; with S. aureus it was 1.6 µg/mL; in the assay with Shigella, Salmonella it was 0.3 µg/mL; in the assay with Indole(+) Proteus it was 0.05 µg/mL; in the assay with E. coli, 0.2 µg/mL; in [3], 6.3 µg/mL. For the same compound, the MIC is 6.3 µg/mL in the assay on E. coli, Cephalosporin-R; 25 µg/mL with S. marcescens [4]; greater than 100 µg/mL with P. aeruginosa; 3.1 µg/mL in the assay with E. cloacae; 0.6 µg/mL in the assay on S. aureus, Penicillin-R; 0.1 µg/mL in the assay on Indole (-) Proteus. Also, the MIC in [1] was 0.032 µg/mL; in the assay on S. marcescens [5] it was 5.4 µg/mL; with E. coli (7) it was 0.58 µg/mL; with S. aureus (3 strains), 1.97 µg/mL; with Proteus (6), 0.021 µg/mL; with S. viridans (5) it was 0.15 µg/mL. In addition, the MIC in the assay on Kl. pneumoniae (4) stood at 0.47 µg/mL; in assay [2], 1.11 µg/mL; in the assay on N. meningitidis (5) it was 2.37 µg/mL; in the assay on D. pneumoniae (5), 0.037 µg/mL; with N. gonorrhoeae (5) it was 1.36 µg/mL; in the assay with H. influenzae (7) it was 0.64 µg/mL.
For the compound `CO/N=C(\C(=O)N[C@@H]1C(=O)N2C(C(=O)O)=C(CSc3ccc4nn(CCC(=O)O)c(=O)n4n3)CS[C@H]12)c1ccco1` [BB-S526, 7-[(2Z)-2-Methoxyimino(fur-2-yl)acetamido]-3-[2-(2-carboxyethyl)-2,3-dihydro-s-triazolo[4,3-b]pyridazin-3-on-6-ylthiomethyl]-3-cephem-4-carboxylic Acid Sodium Salt], the MIC in [1] was found to be 0.032 µg/mL; in the assay on E. coli (7), 0.78 µg/mL; in the assay with S. aureus (3 strains) it was 1.6 µg/mL; with Proteus (6), 0.061 µg/mL; with S. viridans (5), 0.4 µg/mL; with Kl. pneumoniae (4), 0.93 µg/mL. In addition, the MIC in [2] amounted to 2.41 µg/mL; with N. meningitidis (5) it was 3.6 µg/mL; in the assay on D. pneumoniae (5), 0.056 µg/mL; in the assay with N. gonorrhoeae (5), 1.6 µg/mL; with H. influenzae (7), 0.71 µg/mL.
Consider `NCc1ccccc1CC(=O)N[C@@H]1C(=O)N2C(C(=O)O)=C(CSc3nnnn3CC(=O)O)CS[C@H]12` [BL-S786, 7-[α-(2-aminomethylphenyl)acetamido]-3-[(1-carboxymethyltetrazol-5-lthio)methyl]-3-cephem-4-carboxylic acid, reference compound], for which the MIC is 0.3 µg/mL (≈ 0.577 µM) in the assay with K. pneumoniae; 0.5 µg/mL (≈ 0.962 µM) with Shigella, Salmonella; 0.3 µg/mL (≈ 0.577 µM) with Indole(+) Proteus; 0.2 µg/mL (≈ 0.385 µM) in the assay with E. coli; 50.1 µg/mL (≈ 96.4 µM) in assay [3]; 12.5 µg/mL (≈ 24.1 µM) in the assay with E. coli, Cephalosporin-R. Besides, the MIC in the assay on S. marcescens [4] was greater than 100 µg/mL; in the assay on P. aeruginosa it was greater than 100 µg/mL; in the assay on E. cloacae it was 1.6 µg/mL (≈ 3.08 µM); in the assay on S. aureus, Penicillin-R, 1.6 µg/mL (≈ 3.08 µM); in the assay with Indole (-) Proteus it was 0.2 µg/mL (≈ 0.385 µM); in the assay on S. marcescens [5], 85.9 µg/mL (≈ 165 µM).
